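Dose response: 5 concentrations. Exposure: 48 h. Format: 96-well plates. Endpoint: linear interpolation; highest concentration if not reached. The concentration for 50% growth inhibition is given as GI50.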 Active and inactive are the calls of the source. No stated cut-off is given here; in the data, active = GI50 up to about 1.1 µM and inactive = higher.
Legend:
Assay in all cases: NCI anticancer screen, dose series, 48 h
LOX IMVI = tested on: LOX IMVI
SK-MEL-2 = tested on: SK-MEL-2
SK-MEL-5 = tested on: SK-MEL-5
ACHN = tested on: ACHN
CAKI-1 = tested on: CAKI-1
UACC-257 = tested on: UACC-257
HCC 2998 = tested on: HCC 2998
K562 = tested on: K562
NCI-H460 = tested on: NCI-H460
IGROV-1 = tested on: IGROV-1
HCT-15 = tested on: HCT-15
Malme-3M = tested on: Malme-3M
SN12C = tested on: SN12C
HOP-62 = tested on: HOP-62
RPMI-8226 = tested on: RPMI-8226
U-251 = tested on: U-251
SW-620 = tested on: SW-620

| Compound | GI50 (LOX IMVI) | GI50 (SK-MEL-2) | GI50 (SK-MEL-5) | GI50 (ACHN) | GI50 (CAKI-1) | GI50 (UACC-257) | GI50 (HCC 2998) | GI50 (K562) | GI50 (NCI-H460) | GI50 (IGROV-1) | GI50 (HCT-15) | GI50 (Malme-3M) | GI50 (SN12C) | GI50 (HOP-62) | GI50 (RPMI-8226) | GI50 (U-251) | GI50 (SW-620) |
| --- | --- | --- | --- | --- | --- | --- | --- | --- | --- | --- | --- | --- | --- | --- | --- | --- | --- |
| Cc1cc2c(c(C(=O)O)c1C)-c1cccc(Cl)c1C2=O | > 100 µM (inactive) | > 100 µM (inactive) | > 100 µM (inactive) | > 100 µM (inactive) | > 100 µM (inactive) | > 100 µM (inactive) | > 100 µM (inactive) | > 100 µM (inactive) | > 100 µM (inactive) | > 100 µM (inactive) | > 100 µM | > 100 µM (inactive) | > 100 µM (inactive) | > 100 µM (inactive) | > 100 µM (inactive) | > 100 µM (inactive) | > 100 µM (inactive) |
| COc1ccc(C(C#N)NNC(=O)Cc2ccccc2)cc1OC (stereo not given) | > 100 µM (inactive) | > 100 µM (inactive) | > 100 µM (inactive) | > 100 µM (inactive) | > 100 µM (inactive) | > 100 µM (inactive) |  | > 100 µM (inactive) | > 100 µM (inactive) | > 100 µM (inactive) | > 100 µM | > 100 µM (inactive) | > 100 µM (inactive) | > 100 µM (inactive) | > 100 µM (inactive) | > 100 µM (inactive) | > 100 µM (inactive) |
| Cc1ccc(S(=O)(=O)SCc2ccccc2)cc1 | 18.9 µM (inactive) | 27 µM (inactive) | 25.6 µM (inactive) | 32.8 µM (inactive) | 34.9 µM (inactive) | 31.9 µM (inactive) | 24.2 µM (inactive) | 4.57 µM (inactive) | 28.5 µM (inactive) | 39.1 µM (inactive) | 14.1 µM | 24.4 µM (inactive) | 20.8 µM (inactive) | 49.7 µM (inactive) | 10.1 µM (inactive) | 27 µM (inactive) | 4.31 µM (inactive) |
| COc1ccccc1NC(=O)CC(=O)NNCC(=O)Nc1nnc(-c2ccccc2)o1 | > 100 µM (inactive) | > 100 µM (inactive) | > 100 µM (inactive) | > 100 µM (inactive) | > 100 µM (inactive) | > 100 µM (inactive) | > 100 µM (inactive) | > 100 µM (inactive) |  | > 100 µM (inactive) | > 100 µM |  | > 100 µM (inactive) | > 100 µM (inactive) | > 100 µM (inactive) | > 100 µM (inactive) | > 100 µM (inactive) |
| CCOc1ccc(/N=C/c2cccc3cccnc23)cc1 |  | > 100 µM (inactive) | > 100 µM (inactive) | > 100 µM (inactive) | > 100 µM (inactive) | > 100 µM (inactive) | > 100 µM (inactive) | 20 µM (inactive) | > 100 µM (inactive) | > 100 µM (inactive) | 38.2 µM | > 100 µM (inactive) | > 100 µM (inactive) | > 100 µM (inactive) | 30.3 µM (inactive) | > 100 µM (inactive) | 50.5 µM (inactive) |
| Nc1ccc(C(=O)N/C(=C\c2cccc([N+](=O)[O-])c2)c2nc3cc(Cl)ccc3[nH]2)cc1 |  | > 100 µM (inactive) | > 100 µM (inactive) | > 100 µM (inactive) | 77.6 µM (inactive) |  | > 100 µM (inactive) | > 100 µM (inactive) |  | > 100 µM (inactive) | > 100 µM | > 100 µM (inactive) | > 100 µM (inactive) |  |  | > 100 µM (inactive) | > 100 µM (inactive) |
| CCN(CC)c1ccc(/N=C2/C=CC(=C(C#N)C#N)c3ccccc32)c(C)c1 | 1.72 µM (inactive) | 2.08 µM (inactive) | 1.58 µM (inactive) | 2.59 µM (inactive) | 1.72 µM (inactive) | 2.16 µM (inactive) |  | 1.56 µM (inactive) | 2.55 µM (inactive) | 2.73 µM (inactive) | 2.15 µM | 1.87 µM (inactive) | 2.53 µM (inactive) | 2.2 µM (inactive) | 1.38 µM (inactive) | 1.56 µM (inactive) | 1.58 µM (inactive) |
| CCOc1ccc(NC(=O)CCC(=O)NN)cc1 | > 100 µM (inactive) | > 100 µM (inactive) | > 100 µM (inactive) | > 100 µM (inactive) | > 100 µM (inactive) | > 100 µM (inactive) | > 100 µM (inactive) | > 100 µM (inactive) | > 100 µM (inactive) |  | 68.7 µM | > 100 µM (inactive) | 94 µM (inactive) | > 100 µM (inactive) | > 100 µM (inactive) | > 100 µM (inactive) | > 100 µM (inactive) |
| CCOC(=O)C(=O)Nc1c(C)cccc1C(C)C |  | > 100 µM (inactive) | > 100 µM (inactive) | > 100 µM (inactive) | > 100 µM (inactive) | > 100 µM (inactive) |  | > 100 µM (inactive) | > 100 µM (inactive) | > 100 µM (inactive) | > 100 µM | > 100 µM (inactive) | > 100 µM (inactive) | > 100 µM (inactive) | > 100 µM (inactive) | > 100 µM (inactive) | > 100 µM (inactive) |
